In the supplement of paper PMC11061612:

Columns and labels:
Assay in all cases: Bliss excess, mean over the matrix (fraction); higher = more synergy
[1] = tested on: TE-1 (Esophageal Squamous Cell Carcinoma)
Procedure, shortened: (§1)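 Bliss excess equals the observed combination effect minus the expected value EA + EB − EA·EB, where EA and EB are the effects of each agent alone. Combination Emax is the second-highest inhibition within the matrix. Inhibition was scaled from CellTiter-Glo 2.0 luminescence, with 0 set by vehicle wells and 1 by blank wells, after 72 hours of two-drug dosing of cells plated in 1536-well plates.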

[2] = tested on: SCC-15 (Oral Cavity Carcinoma)
Procedure, shortened: as §1

[3] = tested on: Caov-4 (Ovarian Carcinoma)
Procedure, shortened: as §1

[4] = tested on: TK10 (Kidney Carcinoma)
Procedure, shortened: as §1

[5] = tested on: MIA-PaCa-2 (Pancreatic Carcinoma)
Procedure, shortened: as §1

[6] = tested on: AMO-1 (Plasma Cell Myeloma)
Procedure, shortened: as §1

[7] = tested on: EFM-19 (Breast Carcinoma)
Procedure, shortened: as §1

[8] = tested on: MLMA (Other Blood Carcinomas)
Procedure, shortened: as §1

[9] = tested on: UACC-62 (Melanoma)
Procedure, shortened: as §1

[10] = tested on: HOP-62 (Lung Adenocarcinoma)
Procedure, shortened: as §1

[11] = tested on: KARPAS-299 (T-Cell Non-Hodgkin's Lymphoma)
Procedure, shortened: as §1

[12] = tested on: NCI-H727 (Other Solid Carcinomas)
Procedure, shortened: as §1

[13] = tested on: PANC-04-03 (Pancreatic Carcinoma)
Procedure, shortened: as §1

[14] = tested on: BT-549 (Breast Carcinoma)
Procedure, shortened: as §1

[15] = tested on: SW13 (Other Solid Carcinomas)
Procedure, shortened: as §1

[16] = tested on: RF-48 (B-Cell Non-Hodgkin's Lymphoma)
Procedure, shortened: as §1

[17] = tested on: NB69 (Neuroblastoma)
Procedure, shortened: as §1

[18] = tested on: D-263MG (Glioblastoma)
Procedure, shortened: as §1

[19] = tested on: NCI-H1915 (Non-Small Cell Lung Carcinoma)
Procedure, shortened: as §1

[20] = tested on: EoL-1-cell (Acute Myeloid Leukemia)
Procedure, shortened: as §1

With CN(CCO)CC[C@H](CSc1ccccc1)Nc1ccc(S(=O)(=O)NC(=O)c2ccc(N3CCC([C@@H](O)c4ccccc4-c4ccc(Cl)cc4)CC3)cc2)cc1S(=O)(=O)C(F)(F)F [AZD4320] + CN(C)CCCOc1ccc(-c2ccc3ncc4c(c3c2)n(C2CCOCC2)c(=O)n4C)cn1 [AZD0156] (first compound max 1 µM, 7x7, partner max 1 µM) the Bliss excess [1] was -0.033, the Bliss excess [2] was -0.0538 and the Bliss excess [3] was -0.0319. For the same molecule, the Bliss excess [4] was -0.0373, the Bliss excess [5] was -0.0626 and the Bliss excess [6] was -0.0217. It also gave a Bliss excess [7] of -0.0491, a Bliss excess [8] of 0.0214 and a Bliss excess [9] of -0.0368. For the same molecule, the Bliss excess [10] was -0.0619, the Bliss excess [11] was 0.0129 and the Bliss excess [12] was -0.0606. It also gave a Bliss excess [13] of -0.0652, a Bliss excess [14] of -0.0354 and a Bliss excess [15] of -0.019. The Bliss excess [16] was -0.0469, the Bliss excess [17] was -0.12 and the Bliss excess [18] was -0.0256. It also gave a Bliss excess [19] of 0.0196 and a Bliss excess [20] of 0.024.

In the case of COc1nnc2ccc(N3CCC(c4ccc(OCCN5CCN(C)C(=O)[C@H]5C)cc4)CC3)nn12 [AZD5153] + C=CCn1c(=O)c2cnc(Nc3ccc(N4CCN(C)CC4)cc3)nc2n1-c1cccc(C(C)(C)O)n1 [AZD1775] (first compound max 1 µM, partner max 1 µM), the Bliss excess [1] is reported as -0.0357, the Bliss excess [2] is reported as -0.0427 and the Bliss excess [3] is reported as -0.0316. The Bliss excess [4] was -0.0831, the Bliss excess [5] was -0.0019 and the Bliss excess [6] was -0.0881. The Bliss excess [7] was -0.026, the Bliss excess [8] was -0.107 and the Bliss excess [9] was -0.0529. For the same molecule, the Bliss excess [10] was -0.0674, the Bliss excess [11] was -0.0336 and the Bliss excess [12] was -0.0299. It also gave a Bliss excess [13] of -0.106, a Bliss excess [14] of -0.0585 and a Bliss excess [15] of -0.0336. For the same molecule, the Bliss excess [16] was -0.012, the Bliss excess [17] was -0.0206 and the Bliss excess [18] was -0.0619. It also gave a Bliss excess [19] of -0.0565 and a Bliss excess [20] of -0.011.

With COc1nnc2ccc(N3CCC(c4ccc(OCCN5CCN(C)C(=O)[C@H]5C)cc4)CC3)nn12 [AZD5153] + CC1(C)CCC(CN2CCN(c3ccc(C(=O)NS(=O)(=O)c4ccc(NCC5CCOCC5)c([N+](=O)[O-])c4)c(Oc4cnc5[nH]ccc5c4)c3)CC2)=C(c2ccc(Cl)cc2)C1 [Venetoclax] (first compound max 1 µM, 7x7, partner max 1 µM) the Bliss excess [1] was -0.0383, the Bliss excess [2] was -0.0681 and the Bliss excess [3] was 0.0179. For the same molecule, the Bliss excess [4] was -0.0549, the Bliss excess [5] was -0.0739 and the Bliss excess [6] was -0.0483. For the same molecule, the Bliss excess [7] was -0.0442, the Bliss excess [8] was -0.0084 and the Bliss excess [9] was -0.0271. For the same molecule, the Bliss excess [10] was -0.0716, the Bliss excess [11] was -0.0419 and the Bliss excess [12] was -0.0558. It also gave a Bliss excess [13] of -0.0341, a Bliss excess [14] of -0.0031 and a Bliss excess [15] of -0.0458. The Bliss excess [16] was -0.0312, the Bliss excess [17] was 0.0488 and the Bliss excess [18] was -0.0613. For the same molecule, the Bliss excess [19] was -0.0659 and the Bliss excess [20] was -0.0183.

For COc1nnc2ccc(N3CCC(c4ccc(OCCN5CCN(C)C(=O)[C@H]5C)cc4)CC3)nn12 [AZD5153] + CCN(CCO)CCCOc1ccc2c(Nc3cc(CC(=O)Nc4cccc(F)c4)[nH]n3)ncnc2c1 [AZD2811] (first compound max 1 µM, 7x7, partner max 1 µM), the Bliss excess [1] was 0.0103, the Bliss excess [2] was -0.0546 and the Bliss excess [3] was -0.0403. For the same molecule, the Bliss excess [4] was -0.0717, the Bliss excess [5] was 0.0109 and the Bliss excess [6] was -0.0109. For the same molecule, the Bliss excess [7] was -0.0262, the Bliss excess [8] was -0.0434 and the Bliss excess [9] was -0.0564. The Bliss excess [10] was -0.0853, the Bliss excess [11] was -0.0009 and the Bliss excess [12] was -0.0469. For the same molecule, the Bliss excess [13] was -0.0667, the Bliss excess [14] was -0.0576 and the Bliss excess [15] was -0.0368. For the same molecule, the Bliss excess [16] was 0.0065, the Bliss excess [17] was -0.0087 and the Bliss excess [18] was -0.0231. The Bliss excess [19] was -0.0764 and the Bliss excess [20] was 0.003.

COc1nnc2ccc(N3CCC(c4ccc(OCCN5CCN(C)C(=O)[C@H]5C)cc4)CC3)nn12 [AZD5153] + C[C@@H]1COCCN1C2=NC(=NC(=C2)C3(CC3)[S@](=N)(=O)C)C4=C5C=CNC5=NC=C4 [AZD6738] (first compound max 1 µM, 7x7, partner max 10 µM) gave a Bliss excess [1] of 0.019, a Bliss excess [2] of 0.0084 and a Bliss excess [3] of 0.097. For the same molecule, the Bliss excess [4] was -0.0406, the Bliss excess [5] was 0.0077 and the Bliss excess [6] was -0.0361. The Bliss excess [7] was 0.0541, the Bliss excess [8] was -0.111 and the Bliss excess [9] was 0.0179. The Bliss excess [10] was -0.0276, the Bliss excess [11] was 0.0074 and the Bliss excess [12] was 0.0364. The Bliss excess [13] was -0.008, the Bliss excess [14] was -0.0139 and the Bliss excess [15] was -0.022. The Bliss excess [16] was -0.0851, the Bliss excess [17] was 0.008 and the Bliss excess [18] was 0.0106. For the same molecule, the Bliss excess [19] was -0.0054 and the Bliss excess [20] was -0.0066.

COc1nnc2ccc(N3CCC(c4ccc(OCCN5CCN(C)C(=O)[C@H]5C)cc4)CC3)nn12 [AZD5153] + Cc1c2c(nn1C)CSCc1cc(n(C)n1)CSc1cc(c3ccccc3c1)OCCCc1c(C(=O)O)n(C)c3c-2c(Cl)ccc13 [AZD5991] (first compound max 1 µM, 7x7, partner max 1 µM) showed a Bliss excess [1] of -0.0166, a Bliss excess [2] of -0.0167 and a Bliss excess [3] of 0.0265. The Bliss excess [4] was -0.0459, the Bliss excess [5] was 0.0438 and the Bliss excess [6] was -0.0514. For the same molecule, the Bliss excess [7] was 0.059, the Bliss excess [8] was -0.0085 and the Bliss excess [9] was 0.0084. It also gave a Bliss excess [10] of -0.0482, a Bliss excess [11] of -0.0277 and a Bliss excess [12] of -0.0398. For the same molecule, the Bliss excess [13] was -0.0038, the Bliss excess [14] was 0.0452 and the Bliss excess [15] was 0.0258. The Bliss excess [16] was -0.0863, the Bliss excess [17] was -0.0334 and the Bliss excess [18] was 0.105. The Bliss excess [19] was -0.0343 and the Bliss excess [20] was -0.0073.

COc1nnc2ccc(N3CCC(c4ccc(OCCN5CCN(C)C(=O)[C@H]5C)cc4)CC3)nn12 [AZD5153] + Cn1cnc2c(F)c(Nc3ccc(Br)cc3Cl)c(C(=O)NOCCO)cc21 [Selumetinib] (first compound max 1 µM, 7x7, partner max 10 µM) gave a Bliss excess [1] of 0.0111, a Bliss excess [2] of 0.032 and a Bliss excess [3] of -0.053. It also gave a Bliss excess [4] of 0.0204, a Bliss excess [5] of -0.0371 and a Bliss excess [6] of -0.0076. The Bliss excess [7] was -0.0565, the Bliss excess [8] was -0.0447 and the Bliss excess [9] was 0.0397. For the same molecule, the Bliss excess [10] was -0.0724, the Bliss excess [11] was 0.0528 and the Bliss excess [12] was -0.0146. For the same molecule, the Bliss excess [13] was -0.0358, the Bliss excess [14] was -0.0019 and the Bliss excess [15] was 0.0304. It also gave a Bliss excess [16] of -0.0939, a Bliss excess [17] of 0.0191 and a Bliss excess [18] of 0.0205. The Bliss excess [19] was -0.0186 and the Bliss excess [20] was 0.0345.
